Eleven compounds from PubChem BioAssay AID2060361 (Molecular Pharmacology Branch, DTP, NCI, 2025) can be followed below.

Where “and” joins values, the source holds several entries; their conditions need not be identical. Identical values can stand only once.

This assay relates to 463943-066-T-J2-PDC tumor spheroids with HUVEC/MSC, viability. The assay can be described thus: Anticancer human tumor 463943-066-T-J2-PDC patient-derived colon adenocarcinoma cell line growth inhibition [TAK]. The settings on record: for viability, T/C: stronger effect = lower value. From the text: Combinatorial screen of targeted agents with TAK-243 and ipatasertib in multi-cell type tumor spheroids
A high-throughput screen of multi-cell type tumor spheroids was designed to identify active combinations of targeted small molecules and TAK-243 or ipatasertib. Complex spheroids include a stromal component modeled by human endothelial cells (HUVEC) and fibroblasts modeled by human mesenchymal stem cells (MSCs). The concentration ranges selected for each drug and investigational agent were based upon clinically achievable concentrations if the clinical Cmax of the agent was known.
Compounds. The drugs and investigational agents: TAK-243 (785004), ipatasertib (767898), everolimus (733504), selumetinib (741078), bortezomib (756655), trametinib (758246), ixazomib (758254), vemurafenib (761431), dabrafenib (764134), sapanisertib (764658), alpelisib (765974), and copanlisib (816437), were obtained from the National Cancer Institute (NCI) Developmental Therapeutics Program Chemical Repository. The FDA-approved anticancer drug set is available from the NCI Developmental Therapeutics Program. […] The stock solutions were prepared in dimethyl sulfoxide (DMSO, Sigma-Aldrich, St. Louis, MO, cat. D2650) at 800-fold the tested concentration and stored at -70 degrees C prior to their use. All drugs and investigational agents were tested over a range starting from a high concentration at or near the clinical Cmax and decreasing in half-log increments. If the clinical Cmax for an agent had not been determined, the highest concentration tested was 10 microM.
NCI60 Cell Culture. NCI60 cell lines were obtained from the NCI Developmental Therapeutics Program Tumor Repository. For each lot of cells, the Repository performed Applied Biosystems AmpFLSTR Identifiler testing with PCR amplification to confirm consistency with the published Identifier STR profile for each cell line. Cells were kept in continuous culture for no more than 20 passages. The optimal seeding densities for each of the cell lines at each time point assessed were determined prior to performing the concentration response studies. Briefly, the NCI60 human tumor lines were grown as monolayers in RPMI 1640 medium supplemented with 10% FBS and 2 mmol/L L-glutamine.
An additional 2 lines were from the NCI60 cell line panel including melanomas, MALME-3M and SK-MEL-2. Pooled donor human umbilical vein endothelial cells (HUVEC, Lonza, cat. CC-2519) and human mesenchymal stem cells (hMSC, Lonza, cat. PT-2501) were purchased from Lonza (Walkersville, MD).
PDMR cell lines were grown in complete medium (DC medium): Dulbecco's modified Eagle's medium (DMEM)/F12 supplemented with 5% fetal bovine serum (FBS), 2 mM L-glutamine, 100 U/mL penicillin and 100 µg/ml streptomycin, 0.4 µg/ml hydrocortisone, 10 ng/ml epidermal growth factor (EGF) recombinant human protein, 24 µg/mL adenine, and 0.1 mg/mL primocin. During culture from frozen stock vials, PDMR cells were cultured in the same medium containing 10 µM Y-27632 (see Table 3). The PDCs were cultured in complete DMEM/F12 media without 10 microM Y-27632 dihydrochloride for at least two passages prior to the screen. The pooled donor HUVEC and hMSC were cultured in endothelial cell growth medium 2 (PromoCell, Heidelberg, Germany, cat. C-22011) and mesenchymal stem cell growth medium 2 (PromoCell, cat. C-28009), respectively. For all experiments, HUVEC and hMSC were used at passages </=5.
For the pre-screen, cell seeding densities were determined from a titration spanning the range from 5,000 to 313 cells per well. The mct-spheroids including 60% malignant cells, 25% HUVEC and 15% MSC dispensed as a mixture into U-bottom Ultra-Low Attachment 384-well plates (Corning, NY)
High-throughput Drug Combination Screening.
Prior to their inoculation into 384-well plates, malignant cells, HUVEC, and hMSC were removed from T flasks using TrypLE express (Thermo Fisher Scientific, cat. 12605036) and harvested by centrifugation for 5 min at 233 x g. […]
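Also: spheroids exposed to drugs for seven days.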

Usually viability, T/C stands for the ratio of treated to control. The term IC50 denotes the midpoint of a concentration-inhibition curve. Take `CC(=O)Nc1cccc(-n2c(=O)n(C3CC3)c(=O)c3c(Nc4ccc(I)cc4F)n(C)c(=O)c(C)c32)c1`: the viability, T/C (compound 94.9 pM) is 104% and 102%; the viability, T/C (compound 0.0003 µM) was 93.3% and 98.1%; the viability, T/C (compound 0.000949 µM) was 89.2% and 86.9%; the viability, T/C (compound 0.003 µM) is 86.5% and 68.9%; the viability, T/C (compound 0.00949 µM) is 81.9% and 67.4%; the viability, T/C (compound 0.03 µM) was 67.2% and 59.4%. In addition, under “curve of compound”, the IC50 is greater than 30 nM.

With `CC(C)(C)c1nc(-c2cccc(NS(=O)(=O)c3c(F)cccc3F)c2F)c(-c2ccnc(N)n2)s1`, the viability, T/C was 116% and 108% (compound 0.0316 µM); 110% and 108% (compound 0.1 µM); 113% and 103% (compound 0.316 µM); 112% and 109% (compound 1 µM); 109% and 116% (compound 3.16 µM); 104% and 107% (compound 10 µM). For the setting “curve of compound”, the IC50 was greater than 10000 nM.

For `CC(C)CC(NC(=O)C(Cc1ccccc1)NC(=O)c1cnccn1)B(O)O` (stereo not drawn), the viability, T/C (compound 31.6 pM) was 106% and 127%; the viability, T/C (compound 0.0001 µM) is 109% and 112%; the viability, T/C (compound 0.000316 µM) is 97.4% and 97.8%; the viability, T/C (compound 0.001 µM) is 87.7% and 98.7%; the viability, T/C (compound 0.00316 µM) is 90.2% and 85.5%; the viability, T/C (compound 0.01 µM) was 70.7% and 80.7%. The IC50 (curve of compound) is greater than 10 nM.

With `CC(C)CC(NC(=O)CNC(=O)c1cc(Cl)ccc1Cl)B1OC(=O)CC(CC(=O)O)(C(=O)O)O1` (stereo not drawn), the viability, T/C by setting is: (compound 0.000316 µM) 109% and 95.1%; (compound 0.001 µM) 108% and 96.2%; (compound 0.00316 µM) 122% and 97.5%; (compound 0.01 µM) 100% and 95.3%; (compound 0.0316 µM) 82.2% and 73.6%; (compound 0.1 µM) 81.4% and 74.8%. Besides, the IC50 (curve of compound) was greater than 100 nM.

For the compound `CC(C)NCC(C(=O)N1CCN(c2ncnc3c2C(C)CC3O)CC1)c1ccc(Cl)cc1` (stereo not drawn), the viability, T/C (compound 0.3 µM) is 94.2% [middle of 10 runs] and the viability, T/C (compound 3 µM) was 86.9% [middle of 10 runs]. For the setting “compound alone, run of 02/28/2020”, the concentration for half-maximal inhibition (IC50) is greater than 30000 nM.

`CC(C)n1nc(-c2ccc3oc(N)nc3c2)c2c(N)ncnc21`: the viability, T/C runs as follows: (compound 0.000316 µM) 115% and 102%; (compound 0.001 µM) 103%; (compound 0.00316 µM) 93.7% and 84.9%; (compound 0.01 µM) 75.8% and 92.2%; (compound 0.0316 µM) 83.8% and 77.3%; (compound 0.1 µM) 82.8% and 76.9%. Further, the IC50 (curve of compound) is greater than 100 nM.

Take `CCCS(=O)(=O)Nc1ccc(F)c(C(=O)c2c[nH]c3ncc(-c4ccc(Cl)cc4)cc23)c1F`: the viability, T/C by setting is: (compound 0.316 µM) 108% and 97.6%; (compound 1 µM) 107% and 112%; (compound 3.16 µM) 109% and 126%; (compound 10 µM) 95.6% and 103%; (compound 31.6 µM) 122% and 118%; (compound 100 µM) 122% and 124%. Moreover, the IC50 (curve of compound) is greater than 100000 nM.

For the compound `COC1CC2CCC(C)C(O)(O2)C(=O)C(=O)N2CCCCC2C(=O)OC(C(C)CC2CCC(OCCO)C(OC)C2)CC(=O)C(C)C=C(C)C(O)C(OC)C(=O)C(C)CC(C)C=CC=CC=C1C` (stereo not drawn), the viability, T/C is 101% and 107% (compound 0.000316 µM); 91% and 91.9% (compound 0.001 µM); 87.1% and 85.7% (compound 0.00316 µM); 83.7% and 89.1% (compound 0.01 µM); 85.6% and 91.5% (compound 0.0316 µM); 76.8% and 86% (compound 0.1 µM). Also, the IC50 (curve of compound) was greater than 100 nM.

With `COc1c(OCCCN2CCOCC2)ccc2c3n(c(=NC(=O)c4cnc(N)nc4)nc12)CCN3`, the viability, T/C by setting is: (compound 0.00316 µM) 93.7% and 101%; (compound 0.01 µM) 88.3% and 90.3%; (compound 0.0316 µM) 84.4% and 86.9%; (compound 0.1 µM) 80.3% and 85%; (compound 0.316 µM) 77.4% and 77.2%; (compound 1 µM) 68.1% and 72.1%. Further, the IC50 (curve of compound) was greater than 1000 nM.

Turning to `Cc1nc(NC(=O)N2CCCC2C(N)=O)sc1-c1ccnc(C(C)(C)C(F)(F)F)c1` (stereo not drawn), the viability, T/C (compound 0.0316 µM) was 96.2% and 102%; the viability, T/C (compound 0.1 µM) was 103% and 91.1%; the viability, T/C (compound 0.316 µM) is 87.7% and 90.1%; the viability, T/C (compound 1 µM) was 78.6% and 84.6%; the viability, T/C (compound 3.16 µM) is 81.1% and 78.6%; the viability, T/C (compound 10 µM) was 78.6% and 73.7%. Under “curve of compound”, the IC50 is greater than 10000 nM.

`Cn1cnc2c(F)c(Nc3ccc(Br)cc3Cl)c(C(=O)NOCCO)cc21`: the viability, T/C (compound 0.00949 µM) was 101% and 106%; the viability, T/C (compound 0.03 µM) was 99.1% and 108%; the viability, T/C (compound 0.0949 µM) is 77.1% and 84%; the viability, T/C (compound 0.3 µM) was 85.9% and 76%; the viability, T/C (compound 0.949 µM) is 64.1% and 78.2%; the viability, T/C (compound 3 µM) is 62.4% and 57.4%. Also, the IC50 (curve of compound) was greater than 3000 nM.
